“Also recorded” adds a separate entry of the source.
Legend:
[1] = target: T1, recombinant human mGlu7 receptor (Homo sapiens, UniProt Q14831); assay: NAM mGlu7 activity, forskolin-induced cAMP (HTRF) in T-REx 293 cell line; assay type: cell-based; conditions: forskolin-stimulated cAMP response, 5 µM LSP4-2022 (EC80), T-REx 293 human mGlu7; for Inhibition (%): 10 μM compound
T1 construct: expressed in transfected cells; host or cells: T-REx 293 (tetracycline-inducible)
Description: The cell lines with the tetracycline-inducible expression of human metabotropic receptors 4, 7, and 8 were described in detail by Chruścicka et al. (mGlu4 receptor NM_000841, mGlu7 receptor NM_000844.2, and mGlu8 receptor NM_000845). Cells were grown under standard cell culture conditions (37 °C, 5% CO2) in DMEM supplemented with 10% tetracycline-free FBS. The expression was induced through the addition of tetracycline to the culture medium at 0.75 μg/mL.
The determination of the intracellular cAMP through homogeneous time-resolved fluorescence (HTRF) was described in detail previously. Briefly, 48 h before the experiments, the expression of the receptor was induced through the addition of tetracycline to the culture medium; the next day, FBS and L-Glu were removed from the medium. Just before the cAMP measurement, the cells were detached and centrifuged. Then, the cell suspension in Hanks-HEPES (130 mM NaCl, 5.4 mM KCl, 1.8 mM CaCl2, 0.8 mM MgSO4, 0.9 mM NaH2PO4, 20 mM HEPES, and 3.25 mM glucose; pH 7.4) was incubated in the presence of 10 µM forskolin (mGlu7 receptor, 3 µM forskolin), the agonist LSP4-2022 or L-Glu (for mGlu4 and mGlu8), and a compound for 5 min. The intracellular concentration of cyclic AMP was measured by means of a cAMP Gi HTRF kit from Cisbio, according to the manufacturer’s instructions. After 1 h of incubation at room temperature, the fluorescence at 620 nm and 665 nm was read (Tecan Infinite M1000). The results were calculated as the 665 nm/620 nm ratio multiplied by 10^4. Each sample was prepared in triplicate. Data were analyzed using GraphPad Prism version 5.04 for Windows (GraphPad Software, San Diego, USA).
The activity of the compounds was examined in the T-REx 293-cell-line-expressing recombinant human mGlu7 receptor by detecting the level of cyclic AMP in the presence of 5 µM forskolin [7, 41]. […] The substances were incubated with 5 µM LSP4-2022 (EC80).
Firstly, all compounds were screened at 10 μM using three cell lines expressing the mGlu4/7/8 receptor to evaluate selectivity. For the mGlu4 and mGlu8 receptors, glutamic acid was used as an agonist and had good potency. […] VU0155041 and AZ12216052 were used as reference compounds for the mGlu4 and mGlu8 receptors, respectively. The parameter described as “% of inhibition” was introduced to compare the bioactivity of the new compounds to the reference NAM at a 10 μM concentration in the presence of 5 μM LSP4-2022 (0%) and 3 μM forskolin (100%). […] For compounds that passed the screening procedure, the dose–response curve in the presence of LSP4-2022 in 5 μM was evaluated compared to reference NAM ADX71743. Only compounds ALX-063, ALX-065, and ALX-171 (Figure S3, Supplementary Materials) met our conditions regarding bioactivity. All of them were further investigated to determine the EC50 and receptor selectivity. […]
2.1. NAM mGlu7 receptor activity on T-Rex 293 cell line
The activity of compounds was examined on T-REx 293 cell line expressing recombinant human mGlu7 receptor by detecting the level of cyclic AMP in the presence of 5 µM forskolin [14,15]. The cell line was […]
incubated with 5 µM of LSP4-2022 (EC80).

[2] = target: T1, recombinant human mGlu7 receptor; assay: as above; assay type: cell-based
[3] = test system: animal models of schizophrenia; conditions: mGlu7 PAM; cited from earlier work

T1 sequence (Q14831 35-915): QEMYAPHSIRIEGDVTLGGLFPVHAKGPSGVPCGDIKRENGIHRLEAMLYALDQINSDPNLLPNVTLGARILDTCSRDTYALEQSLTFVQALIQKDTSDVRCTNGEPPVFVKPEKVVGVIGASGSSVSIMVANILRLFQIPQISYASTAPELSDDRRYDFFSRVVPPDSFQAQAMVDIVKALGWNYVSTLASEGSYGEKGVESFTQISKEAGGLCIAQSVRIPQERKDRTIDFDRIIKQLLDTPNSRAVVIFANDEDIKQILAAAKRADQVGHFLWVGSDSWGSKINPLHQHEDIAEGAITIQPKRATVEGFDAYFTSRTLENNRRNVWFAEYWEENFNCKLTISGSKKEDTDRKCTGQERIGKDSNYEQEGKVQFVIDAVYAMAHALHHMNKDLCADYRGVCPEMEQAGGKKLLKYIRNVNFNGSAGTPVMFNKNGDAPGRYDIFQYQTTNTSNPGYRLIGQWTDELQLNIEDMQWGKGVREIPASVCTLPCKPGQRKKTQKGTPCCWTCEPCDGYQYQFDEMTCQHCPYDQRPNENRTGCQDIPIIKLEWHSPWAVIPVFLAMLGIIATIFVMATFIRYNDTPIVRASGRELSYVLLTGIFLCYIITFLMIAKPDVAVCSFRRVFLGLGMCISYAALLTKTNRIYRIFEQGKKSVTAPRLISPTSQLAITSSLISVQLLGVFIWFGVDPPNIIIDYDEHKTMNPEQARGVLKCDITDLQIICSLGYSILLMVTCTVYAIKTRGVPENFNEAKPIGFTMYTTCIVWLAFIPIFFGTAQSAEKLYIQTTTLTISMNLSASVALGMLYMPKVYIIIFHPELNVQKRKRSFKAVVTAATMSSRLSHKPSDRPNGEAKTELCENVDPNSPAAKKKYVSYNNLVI

Row | SMILES | Inhibition (%) [1] | other results
1 | COc1ccccc1-c1ccc2nc(-c3ccccc3Cl)n(C)c(=O)c2c1 [A9-4] | Inactive | 
2 | COc1cccc(-c2ccc3nc(-c4ccccc4Cl)n(C)c(=O)c3c2)c1 [A9-5] | Inactive | 
3 | COc1ccc(-c2ccc3nc(-c4ccccc4Cl)n(C)c(=O)c3c2)cc1 [A9-6] | not observed; also recorded: Inactive | 
4 | COc1ccc(-c2ccc3nc(-c4ccccc4Cl)n(C)c(=O)c3c2)c(OC)c1 [A9-8] | Inactive | 
5 | COc1ccc(-c2ccc3nc(-c4ccccc4Cl)n(C)c(=O)c3c2)cc1OC [A9-9] | Inactive | 
6 | COc1ccc(OC)c(-c2ccc3nc(-c4ccccc4Cl)n(C)c(=O)c3c2)c1 [A9-10] | Inactive | 
7 | COc1cc(OC)cc(-c2ccc3nc(-c4ccccc4Cl)n(C)c(=O)c3c2)c1 [A9-11] | Inactive | 
8 | COc1cccc(OC)c1-c1ccc2nc(-c3ccccc3Cl)n(C)c(=O)c2c1 [A9-12] | Inactive | 
9 | Cn1c(-c2ccccc2)nc2ccc(-c3ccccc3)cc2c1=O [ALX-063, 3-methyl-2,6-diphenylquinazolin-4(3H)-one] |  | inhibition at 10 µM ([1]; T-REx-293, 10 μM compound): 42.5 ± 36.5%; IC50 ([2]; T-REx 293 cells expressing human mGlu7, 5 µM LSP4-2022 (EC80), 5 µM forskolin): 6.5 µM
10 | c1ccc(C(NCCNC(c2ccccc2)c2ccccc2)c2ccccc2)cc1 [AMN082] |  | activity in animal models [3]: propsychotic activity
11 | N[C@@H](CCC(=O)O)C(=O)O [L-Glu] |  | agonist potency at mGlu7 receptor ([2]; agonist compared with LSP4-2022): ~ 1 mM

Source: paper PMC9916658, “Design and Synthesis of New Quinazolin-4-one Derivatives with Negative mGlu7 Receptor Modulation Activity and Antipsychotic-Like Properties” (International Journal of Molecular Sciences, 2023)
